In patent publication US20230293483A1, “COMPOSITION FOR PREVENTING OR TREATING LIVER DISEASE, COMPRISING ICARITIN AND QUERCETIN” (INDUSTRY-ACADEMIC COORPERATION FOUNDATION DAEGU HAANY …, priority 2020, published 2023):

Test system: HepG2 cells
Experiment: Cell viability test (MTT assay) against oxidative stress induced by AA+iron
Assay type: cell-based, human
Details: for hepatocellular protective effect (cell viability): AA+iron in HepG2, compared with genistein and luteolin at the same concentration, FIG. 1
Procedure: HepG2 cell, a human-derived liver parenchymal cell line, was purchased from the American Type Culture Collection (ATCC, Rockville, MD, USA). Dulbecco's modified Eagle's medium (DMEM; Gibco) mixed with heat-treated 10% fetal bovine serum (FBS; Gibco), 100 units/ml of penicillin, and 100 μg/mL of streptomycin (Gibco) was used to culture HepG2 cells in an incubator maintained at 37° C. and 5% CO2 conditions. Cells were cultured in a 100 mm dish to a confluence of 80% or more, and subcultured twice a week at a ratio of 1:4. After serum-starvation for 12 hours, drugs were treated at different concentrations, and 1 hour later, 10 μM of AA was treated for 12 hours, and then treated with 5 μM of iron, and further cultured for 5 hours.
Cell viability was measured by MTT assay. HepG2 cells were dispensed in 0.5 mL/well at a concentration of 2×10^5 cells/well in a 24-well plate, and then cultured for 24 hours. After serum was depleted for 12 hours, the drug was treated for 1 hour, and then 10 μM of AA was treated for 12 hours, and 5 μM of iron was added and cultured for 5 hours. Herein, 300 μL of MTT 0.5 mg/mL per well was treated and reacted at 37° C. for 2 hours. After carefully removing the medium and dissolving formazan crystals produced by reducing MTT with dimethylsulfoxide (DMSO), absorbance was measured at 570 nm using a microplate measuring instrument (Tecan Infinite M200 PRO, USA).
In addition, in order to identify the cell viability according to the mixed use of icaritin and quercetin according to the results of FIG. 1, HepG2 cells were dispensed in 2×10^5 cells/well into a 24-well plate and cultured for 24 hours. After treatment for 1 hour at the concentrations shown in Table 1 below, 10 μM of AA was treated for 12 hours, and 5 μM of iron was added and cultured for 5 hours. […] The absorbance was measured at 570 nm using a microplate measuring instrument (Tecan Infinite M200 PRO, USA).

SMILES	hepatocellular protective effect (cell viability)	cell viability (HepG2, drug 1 h, then 10 μM AA 12 h + 5 μM iron 5 h, MTT, FIG. 2)
COc1ccc(-c2oc3c(CC=C(C)C)c(O)cc(O)c3c(=O)c2O)cc1 [Comparative Example 1, icaritin]	most significant hepatocellular protective effects	
O=c1c(O)c(-c2ccc(O)c(O)c2)oc2cc(O)cc(O)c12 [Comparative Example 2, quercetin]	most significant hepatocellular protective effects	about 47.9±0.4%
